Like-named read-outs stand apart in the source and are kept apart here.
Tested on: panel of hematologic and solid cancer lines
Test: 6-day in vitro growth/death assay
Type: cell-based, human
Conditions: read-out: gIC50
Method: To further develop these molecules and to guide clinical strategy, it was necessary to understand sensitivity in preclinical models by assessing the anti-tumour activity of the PRMT5 inhibitors in various cancers.
Cell lines were obtained from ATCC or DSMZ and were grown in recommended medium, which was most frequently RPMI-1640 containing 10% FBS. Cell line proliferation assays, Western blotting, qRT-PCR, and cell cycle analyses were performed as described previously[27],[28]. Antibody and gene expression reagents are as described in Supplementary Table 16. All studies were conducted in accordance with the GSK Policy on the Care, Welfare and Treatment of Laboratory Animals and were reviewed by the Institutional Animal Care and Use Committee either at GSK or by the ethical review process at the institution where the work was performed. Detailed descriptions of all methods can be found in the Supplemental Materials.

O=C(NC[C@H](O)CN1CCc2ccccc2C1)c1ccnc(NC2CCC2)c1 [GSK3203591]
IC50 (Homo sapiens, NCI-H747, NCIH747): 1500 nM | IC50 (Homo sapiens, NCI-H1048, NCI-H1048): 252 nM | IC50 (Homo sapiens, NCI-H1299, NCI-H1299): 419 nM | IC50 (Homo sapiens, NCI-H1437, NCI-H1437): 467 nM | IC50 (Homo sapiens, NCI-H1563, NCI-H1563): > 29300 nM | IC50 (Homo sapiens, NCI-H1581, NCI-H1581): 12800 nM | IC50 (Homo sapiens, NCI-H1648, NCI-H1648): 20700 nM | IC50 (Homo sapiens, NCI-H1650, NCI-H1650): 8770 nM | IC50 (Homo sapiens, NCI-H1651, NCI-H1651): 15300 nM | IC50 (Homo sapiens, NCI-H1915, NCI-H1915): 1130 nM | IC50 (Homo sapiens, NCI-H1975, NCI-H1975): 289 nM | IC50 (Homo sapiens, NCI-H2087, NCI-H2087): 510 nM | IC50 (Homo sapiens, NCI-H2170, NCI-H2170): 6390 nM | IC50 (Homo sapiens, NKM-1): 7.6 nM | IC50 (Homo sapiens, NOMO-1, NOMO-1): 7320 nM | IC50 (Homo sapiens, NU-DHL-1, NU-DHL-1): 101 nM | IC50 (Homo sapiens, NU-DUL-1, NU-DUL-1): 548 nM | IC50 (Homo sapiens, OCI-AML-3, OCI-AML3): 373 nM | IC50 (Homo sapiens, OCI-AML-5, OCI-AML5): 297 nM | IC50 (Homo sapiens, OCI-LY19, OCI-LY-19): 101 nM | IC50 (Homo sapiens, OCI-Ly1, OCILY-1): > 29300 nM | IC50 (Homo sapiens, OCI-Ly3, OCI-LY3): 1510 nM | IC50 (Homo sapiens, OCI-Ly10, OCILY-10): 4470 nM | IC50 (Homo sapiens, OCI-Ly18, OCI-LY-18): 30.8 nM | IC50 (Homo sapiens, OCI-M1, OCI-M1): 130 nM | IC50 (Homo sapiens, OPM-2, OPM-2): 40.2 nM | IC50 (Homo sapiens, PANC-1, PANC-1): 939 nM | IC50 (Homo sapiens, PANC-03-27, PANC-03.27): 2480 nM | IC50 (Homo sapiens, PANC-08-13, PANC-08.13): 136 nM | IC50 (Homo sapiens, PC-3, PC-3): 1890 nM | IC50 (Homo sapiens, PC-9, PC9): 95 nM | IC50 (Homo sapiens, PER-403, PER-403): 29.2 nM | IC50 (Homo sapiens, PER-624): 526 nM | IC50 (Homo sapiens, PER-704): 374 nM | IC50 (Homo sapiens, PL-21, PL-21): 329 nM | IC50 (Homo sapiens, PSN1, PSN-1): 504 nM | IC50 (Homo sapiens, PaTu 8988t, PA-TU-8988T): > 29300 nM | IC50 (Homo sapiens, Panc 02.03, PANC-02.03): 1370 nM | IC50 (Homo sapiens, Panc 04.03, PANC-04.03): 622 nM | IC50 (Homo sapiens, Panc1005, PANC-10.05): 2080 nM | IC50 (Homo sapiens, Pfeiffer): 352 nM | IC50 (Homo sapiens, RCK8, RCK8): 2110 nM | IC50 (Homo sapiens, RIVA): 68.4 nM | IC50 (Homo sapiens, RKO): 2210 nM | IC50 (Homo sapiens, RL): 1430 nM | IC50 (Homo sapiens, RPMI-6666, RPMI-6666): 2710 nM | IC50 (Homo sapiens, RPMI-8226, RPMI-8226): 135 nM | IC50 (Homo sapiens, RPMI-8226-DOX): 204 nM | IC50 (Homo sapiens, RPMI-8226-LR5): 303 nM | IC50 (Homo sapiens, RPMI-8226-MR20): 384 nM | IC50 (Homo sapiens, RT-112, RT-112): 1110 nM | IC50 (Homo sapiens, RVH-421, RVH-421): > 29300 nM | IC50 (Homo sapiens, Rec1, REC-1): 1990 nM | IC50 (Homo sapiens, SC-1, SC-1): 117 nM | IC50 (Homo sapiens, SCaBER): 255 nM | IC50 (Homo sapiens, SF-126, SF-126): 386 nM | IC50 (Homo sapiens, SF-295, SF295): 9840 nM | IC50 (Homo sapiens, SF-539, SF539): 75 nM | IC50 (Homo sapiens, SH-4, SH-4): 2560 nM | IC50 (Homo sapiens, SHI-1): 358 nM | IC50 (Homo sapiens, SIG-M5, SIG-M5): 316 nM | IC50 (Homo sapiens, SK-BR-3, SK-BR-3): 132 nM | IC50 (Homo sapiens, SK-CO-1, SK-CO-1): 473 nM | IC50 (Homo sapiens, SK-LU-1, SK-LU-1): 881 nM | IC50 (Homo sapiens, SK-MEL-5, SK-MEL-5): 111 nM | IC50 (Homo sapiens, SK-MES-1, SK-MES-1): 18500 nM | IC50 (Homo sapiens, SK-MM-2, SK-MM-2): 1260 nM | IC50 (Homo sapiens, SK-NEP-1, SK-NEP-1): 2240 nM | IC50 (Homo sapiens, SK-UT-1, SK-UT-1): 393 nM | IC50 (Homo sapiens, SKM-1, SKM-1): 110 nM | IC50 (Homo sapiens, SKNO-1, SKNO-1): 563 nM | IC50 (Homo sapiens, SNU-16, SNU16): 175 nM | IC50 (Homo sapiens, SNU-C1, SNUC1): 1520 nM | IC50 (Homo sapiens, SR-786, SR-786): 32.8 nM | IC50 (Homo sapiens, SU-DHL10, SU-DHL-10): 495 nM | IC50 (Homo sapiens, SU-DHL-2, SU-DHL-2): 86 nM | IC50 (Homo sapiens, SU-DHL-4, SU-DHL-4): 571 nM | IC50 (Homo sapiens, SU-DHL-5, SU-DHL-5): 132 nM | IC50 (Homo sapiens, SU-DHL-6, SU-DHL-6): 12.9 nM | IC50 (Homo sapiens, SU-DHL-8, SU-DHL-8): 1220 nM | IC50 (Homo sapiens, SU-DHL-16, SU-DHL-16): 124 nM | IC50 (Homo sapiens, SW48, SW48): 9340 nM | IC50 (Homo sapiens, SW480, SW480): 2260 nM | IC50 (Homo sapiens, SW780, SW-780): 450 nM | IC50 (Homo sapiens, SW837, SW837): 9150 nM | IC50 (Homo sapiens, SW900, SW900): 7970 nM | IC50 (Homo sapiens, SW982, SW982): 369 nM | IC50 (Homo sapiens, SW1271, SW1271): 3180 nM | IC50 (Homo sapiens, SW1417, SW-1417): 19600 nM | IC50 (Homo sapiens, SW1573, SW1573): 11400 nM | IC50 (Homo sapiens, SW1710, SW-1710): 10000 nM | IC50 (Homo sapiens, SW1990, SW-1990): 125 nM | IC50 (Homo sapiens, SW-403, SW403): 9760 nM | IC50 (Homo sapiens, SW-620, SW620): 1350 nM | IC50 (Homo sapiens, T47D, T-47D): 225 nM | IC50 (Homo sapiens, T84, T84): 1680 nM | IC50 (Homo sapiens, T98MG): 1300 nM | IC50 (Homo sapiens, T-24, T24): 650 nM | IC50 (Homo sapiens, TCC-SUP, TCCSUP): 11200 nM | IC50 (Homo sapiens, TF-1, TF-1): 138 nM | IC50 (Homo sapiens, THP-1, THP-1): 951 nM | IC50 (Homo sapiens, Toledo): 443 nM | IC50 (Homo sapiens, U138-MG, U138MG): > 29300 nM | IC50 (Homo sapiens, U266B1): 652 nM | IC50 (Homo sapiens, U2932, U2932): 336 nM | IC50 (Homo sapiens, U-87 MG): 128 nM | IC50 (Homo sapiens, U-251, U251MG): 3490 nM | IC50 (Homo sapiens, U-937, U937): 48.6 nM | IC50 (Homo sapiens, U-2940, U2940): 2350 nM | IC50 (Homo sapiens, UMC-11, UMC11): 10700 nM | IC50 (Homo sapiens, UMUC3, UM-UC-3): 19200 nM | IC50 (Homo sapiens, VCaP): > 29300 nM | IC50 (Homo sapiens, VM-CUB-1, VM-CUB1): 1580 nM | IC50 (Homo sapiens, WM 266-4, WM-266-4): 17200 nM | IC50 (Homo sapiens, WSU-FSCCL): 268 nM | IC50 (Homo sapiens, WSU-NHL): 75.7 nM | IC50 (Homo sapiens, WSUDLCL2, WSU-DLCL2): 652 nM | IC50 (Homo sapiens, WiDr): 438 nM | IC50 (Homo sapiens, YH13): > 29300 nM | IC50 (Homo sapiens, YKG-1, YKG1): 254 nM | IC50 (Homo sapiens, Z-138, Z-138): 13.6 nM | IC50 (Homo sapiens, ZR-75-1, ZR-75-1): 2620 nM | IC50 (Homo sapiens, majority (147/276) of cell lines): < 1000 nM | IC50 (J82): 20900 nM | IC50 (JM1): 76 nM | IC50 (JVM-2): 172 nM | IC50 (JeKo-1): 6190 nM | IC50 (LN-229): 1150 nM | IC50 (MAVER-1): 133 nM | IC50 (MCF-7): 215 nM | IC50 (MDA-MB-231): 2930 nM | IC50 (MINO): 536 nM | IC50 (NCI-H526-R): 219 nM | IC50 (NCI-H526): 138 nM | IC50 (PER-403): 29 nM | IC50 (PER-624): 526 nM | IC50 (PER-704): 375 nM | IC50 (Pfeiffer): 352 nM | IC50 (RCK8): 2110 nM | IC50 (REC-1): 1990 nM | IC50 (RIVA): 68 nM | IC50 (RL): 1430 nM | IC50 (SF295): 9840 nM | IC50 (SK-BR-3): 131 nM | IC50 (SU-DHL-4): 571 nM | IC50 (SU-DHL-5): 132 nM | IC50 (SU-DHL-6): 13 nM | IC50 (SU-DHL-8): 1220 nM | IC50 (SU-DHL-10): 495 nM | IC50 (SU-DHL-16): 124 nM | IC50 (SW-780): 451 nM | IC50 (T24): 650 nM | IC50 (U251MG): 3490 nM | IC50 (U937): 49 nM | IC50 (U2932): 336 nM | IC50 (U2940): 2350 nM | IC50 (U-87MG): 127 nM | IC50 (UM-UC-3): 19200 nM | IC50 (WSU-DLCL2): 651 nM | IC50 (Z-138): 14 nM | IC50 (ZR-75-1): 2620 nM

Reference: publication PMC6018746, “Activation of the p53-MDM4 regulatory axis defines the anti-tumour response to PRMT5 inhibition through its role in regulating cellular splicing” (Scientific Reports, 2018)
